# Results reported in paper PMC10135569, “Does Enhanced Structural Maturity of hiPSC-Cardiomyocytes Better for the Detection of Drug-Induced Cardiotoxicity?” (Biomolecules, 2023).
# Key:
# [1] = tested on: hiPSC-CMs (iCell2 Cardiomyocytes) 2D monolayers; assay: Contractility measurements using video imaging (ContractilityTool / MUSCLEMOTION); type: cell-based, human; details: Homo sapiens, Cardiomyocyte, 0.5 h, 30 min, delta over DMSO 0.1%
# Description: (§1) Cardiomyocytes (FUJIFILM Cellular Dynamics, Madison, WI, USA) were kept at −190 °C and prepared for culture as per the manufacturer’s instructions.
# (§2) Standard fibronectin vs. Matrix Plus well coating: The cells were cultured using two different coatings in a humidified incubator at 37 °C with 5% CO2. First, 96-well glass-bottomed plates (MatTek, Ashland, MA) were coated with fibronectin ([…] in PBS supplemented with Ca^2+ and Mg^2+; Sigma, St. Louis, MO, USA) (defining FM). Second, CELLvo^TM Matrix Plus (StemBioSys, San Antonio, TX, USA), which were pre-coated on 96 well glass bottom plates and kept at 4 °C. On the day of plating, CELLvo^TM Matrix Plus plates were transferred to room temperature, rehydrated with phosphate buffer saline (PBS), incubated for 1 h at 37 °C, and washed 2× with PBS. Cells were introduced at a density of 50,000 cells/well to allow the formation of a confluent monolayer in each well (defined as MM). The maintenance protocols followed the manufacturer’s instructions and used the iCell^2 Cardiomyocytes Maintenance media for media changes every 2 days. Experiments were performed between days 5 and 6, as recommended by the manufacturers. Before beginning an experiment, cells were washed in serum-free media (SF media) (Fluorobrite DMEM, Gibco, Thermo Fisher Scientific, Horsham, UK).
# (§3) The drug powders were dissolved in DMSO, and four stock concentrations at 1000× the final target concentration were prepared in DMSO. For the experiment, an intermediate concentration 2× the target solution was prepared in SF media. The addition of drugs to the cells was accomplished by replacing 50% of the well volume with the intermediate 2× solution. The same procedure was done for vehicle control using DMSO. The experimental number n = 8/concentration/testing compound in the FM or MM condition, and n = 36 for each positive or negative control in the FM or MM condition.
# (§4) The dye FluoVolt is loaded into the surface membrane (outer leaflet), and the dye remains within the membrane for many dots, allowing intermittent voltage measurements over the experimental period. In this study, measurements were restricted to within 30 mins of application of the drug. The measurements were made on the same area before/after drug/DMSO addition. […] Baseline spontaneous electrical activity and the associated contractility signal were recorded by capturing 10 s segments of fluorescent signal and video for 2D plates and 15 s for organoids from each well prior to compound addition. Drugs were tested at four concentrations in n = 8 independent replicates (i.e., 8 wells from a single plating) at each concentration. A vehicle control was included for each drug. A 10 s or 15 s recording was then taken 30 min after exposure to the drug or vehicle with only one concentration applied/well. Offline analysis was performed using proprietary software (CellOPTIQ®).
# Short periods (10 s or 15 s) of video were analyzed using the ContractilityTool application (developed by F.L. Burton), which is an implementation of the MUSCLEMOTION algorithm.
# [2] = tested on: hiPSC-CMs (iCell2 Cardiomyocytes) 2D monolayers; assay: Membrane potential (action potential) recordings with FluoVolt voltage-sensitive dye on the CellOPTIQ platform; type: cell-based, human; details: for activity at 0.01 µM / activity at 0.03 µM / activity at 0.1 µM / activity at 0.3 µM: Homo sapiens, Cardiomyocyte, 0.5 h, 30 min, delta over DMSO 0.1%
# Description: as §1, §2, §3
# Cultures of hiPSC-CMs (5–6 days post-plating) were treated with FluoVolt dye (1:1000, Invitrogen, Cat# F10488) in SF media and incubated for 20 min at 37 °C with 5% CO2 and 80% humidity. Multi-well plates were placed in the environmentally controlled stage incubator (37 °C, 5% CO2, water-saturated air atmosphere) (Okolab Inc. Burlingame, CA) of the CellOPTIQ® platform (Clyde Biosciences Ltd., Glasgow, Scotland). The FluoVolt signal was recorded from a 0.2 mm × 0.2 mm area using a 40× (numerical aperture: NA 0.6) Excitation wavelength was 470 ± 10 nm using a light-emitting diode (LED), and emitted light was collected by two photomultipliers (PMTs) at 510–560 nm (channel 1) and 590–650 nm (channel 2), respectively. LED, PMT, and associated power supplies and amplifiers were supplied by Cairn Research Ltd. (Kent, UK) and digitized at 10 kHz and stored on a computer hard drive. In the case of FluoVolt-based action potential recordings, the short wavelength (channel 1, […]) was analyzed for action potential features.
# as §4, with “applied/well.” for “applied/well. Offline analysis was performed using proprietary software (CellOPTIQ®).”
# [3] = FM monolayer, read-out: CtAmp (%DD)
# [4] = FM monolayer, read-out: CtD50 (%DD)
# [5] = MM monolayer, read-out: CtAmp (%DD)
# [6] = MM monolayer, read-out: CtD50 (%DD)
# [7] = FM monolayer, read-out: APD30 (%DD)
# [8] = FM monolayer, read-out: APD90 (%DD)
# [9] = FM monolayer, read-out: CL (%DD)
# [10] = FM monolayer, read-out: Trise (%DD)
# [11] = MM monolayer, read-out: APD30 (%DD)
# [12] = MM monolayer, read-out: APD90 (%DD)
# [13] = MM monolayer, read-out: CL (%DD)
# [14] = MM monolayer, read-out: Trise (%DD)
# [15] = both FM and MM monolayers, concentration not given
structure (smiles),measurement,setting,value
COc1ccc([C@@H]2Sc3ccccc3N(CCN(C)C)C(=O)[C@@H]2OC(C)=O)cc1 [Diltiazem],activity at 0.01 µM,[1]; [3],142 ± 27.5%
same,activity at 0.01 µM,[1]; [4],103 ± 2.8%
same,activity at 0.03 µM,[1]; [3],127 ± 27.9%
same,activity at 0.03 µM,[1]; [4],95 ± 1.4%
same,activity at 0.1 µM,[1]; [3],108 ± 33.5%
same,activity at 0.1 µM,[1]; [4],82 ± 1.6%
same,activity at 0.3 µM,[1]; [3],59 ± 15.4%
same,activity at 0.3 µM,[1]; [4],68 ± 1.4%
same,activity at 0.01 µM,[1]; [5],101 ± 11.1%
same,activity at 0.01 µM,[1]; [6],105 ± 2.7%
same,activity at 0.03 µM,[1]; [5],94 ± 7.8%
same,activity at 0.03 µM,[1]; [6],99 ± 2.6%
same,activity at 0.1 µM,[1]; [5],93 ± 6.2%
same,activity at 0.1 µM,[1]; [6],81 ± 1.2%
same,activity at 0.3 µM,[1]; [5],73 ± 5.8%
same,activity at 0.3 µM,[1]; [6],61 ± 1.9%
same,activity at 0.01 µM,[2]; [7],98 ± 1.9%
same,activity at 0.01 µM,[2]; [8],96 ± 1.1%
same,activity at 0.01 µM,[2]; [9],102 ± 1.1%
same,activity at 0.01 µM,[2]; [10],105 ± 17%
same,activity at 0.03 µM,[2]; [7],92 ± 1.5%
same,activity at 0.03 µM,[2]; [8],92 ± 0.9%
same,activity at 0.03 µM,[2]; [9],103 ± 1.3%
same,activity at 0.03 µM,[2]; [10],103 ± 12.5%
same,activity at 0.1 µM,[2]; [7],76 ± 2.7%
same,activity at 0.1 µM,[2]; [8],78 ± 2.2%
same,activity at 0.1 µM,[2]; [9],96 ± 0.8%
same,activity at 0.1 µM,[2]; [10],91 ± 12%
same,activity at 0.3 µM,[2]; [7],60 ± 1.3%
same,activity at 0.3 µM,[2]; [8],62 ± 1.1%
same,activity at 0.3 µM,[2]; [9],85 ± 0.5%
same,activity at 0.3 µM,[2]; [10],116 ± 13.8%
same,activity at 0.01 µM,[2]; [11],100 ± 1.9%
same,activity at 0.01 µM,[2]; [12],96 ± 0.6%
same,activity at 0.01 µM,[2]; [13],98 ± 0.9%
same,activity at 0.01 µM,[2]; [14],86 ± 16.4%
same,activity at 0.03 µM,[2]; [11],91 ± 1.2%
same,activity at 0.03 µM,[2]; [12],90 ± 0.7%
same,activity at 0.03 µM,[2]; [13],96 ± 0.9%
same,activity at 0.03 µM,[2]; [14],79 ± 4%
same,activity at 0.1 µM,[2]; [11],80 ± 1.6%
same,activity at 0.1 µM,[2]; [12],77 ± 1.2%
same,activity at 0.1 µM,[2]; [13],83 ± 0.6%
same,activity at 0.1 µM,[2]; [14],79 ± 14.3%
same,activity at 0.3 µM,[2]; [11],65 ± 0.8%
same,activity at 0.3 µM,[2]; [12],62 ± 0.9%
same,activity at 0.3 µM,[2]; [13],71 ± 0.5%
same,activity at 0.3 µM,[2]; [14],74 ± 8.9%
same,effect on APD30 (in words),[2]; [15],shortening
same,effect on APD90 (in words),[2]; [15],shortening
same,effect on beating rate / spontaneous rate (in words),"[2]; both FM and MM, concentration not given",increase
